The values that follow come from patent US20030216569A1, “Method of making HIV protease inhibitors” (priority 1993, published 2003).

Assay [1] has as its system HIV-1 isolates IIIB and/or RF in CEM cells. As to the kind of experiment: SRI primary anti-HIV screen, MTT assay of inhibition of HIV-induced cell killing in CEM cells. Format: cell-based. The settings on record: for SRI CEM IC50: CEM cells; for IC50: Human immunodeficiency virus 1, IIIB, CCRF-CEM, read-out: SRI CEM IC50 ng/mL, CEM cells. Here is the method:
A. Principle of MTT Assay:
This assay involves the conversion of the tetrazolium dye MTT to a colored formazan product by mitochondrial enzymes in metabolically active cells. This assay system is used at SRI to screen over 30,000 compounds per year. Briefly, the assay involves the infection of CEM or MT2 cells in round bottom 96-well plates. The compound of interest is added just prior to infection. Following 6 days of incubation at 37° C. the plates are stained with MTT. The results of the assay are quantitated spectrophotometrically on a Molecular Devices Vmax plate reader. The data are analyzed by linear regression utilizing an in-house software program to calculate antiviral activity (IC25, IC50, IC95) and toxicity (TC25, TC50, TC95) as well as other values.
Primary antiviral assays are routinely performed in CEM or MT-2 cells.
B. Standard Screening Assays in CEM and MT-2 Cells
1. Compound dilution and delivery to the plates
Drugs are solubilized in the appropriate vehicle such as distilled water or DMSO if necessary. Latex gloves, lab coats and masks are used during all phases of the handling process to prevent exposure to potentially harmful agents. The drug is prepared at the appropriate concentration and stored at −20° C. until used by the screening laboratory. The first dilution of each compound is made in a dilution tube with medium to yield a concentration two-fold that of the highest test concentration. Sterile titer tubes are then used to make serial one half-log dilutions of each compound. Following drug dilution, the diluted compound is added to the appropriate well of a 96-well microtiter plate. Up to 12 dilutions can be assayed conveniently in triplicate on a single plate with all appropriate controls including cell control, virus control, toxicity control, drug color control, medium control and plastic (background) control. When testing includes only six dilutions, two drugs can be assayed on a single microtiter plate. The drugs are added to the plate in a final volume of 100 microliters.
During the time the drug dilutions are prepared, cells are washed and counted. Viability is monitored by trypan blue dye exclusion and assays are not performed if the viability falls below 90%. Cells are maintained in an exponential growth phase and are split 1:2 on the day prior to assay to assure exponential growth rate.
For the primary screen, the cell lines utilized are CEM and MT-2. Unless otherwise indicated, the medium used is RPMI 1640 with 10% heat-inactivated fetal calf serum (FBS), glutamine and antibiotics.
Cells are propagated at 37° C. in an atmosphere of 5% CO2 in air. The virus employed for this work is HIV-1 isolates IIIB and/or RF, which are prepared by an acute infection process.
Briefly, virus-infected cells are pelleted on a daily basis beginning at three days post-infection until the virus has killed all of the cells in the culture. Reverse transcriptase activity and p24 ELISA are used to identify pools with the greatest amout of virus.
These 24-hour harvests are pooled, filtered and frozen at −90° C. Prior to use in the assay, the infectious pool of virus is titered on all available cell lines in order to determine the amount of virus required in the antiviral assay.
In general, pools produced by the acute infection method require the addition of one microliter of infectious virus per well resulting in the screening of drugs at a multiplicity of infection of 0.01. In this manner, enough virus is prepared and frozen to complete over one thousand microtiter plates, allowing the testing of up to two thousand compounds from a single stock of infectious virus.
Virus infection of the CEM and MT-2 cells for the antiviral assay is carried out in a bulk infection process.
On the technique in general: Tetrazolium dyes change colour on reduction, which living cells bring about.

In assay [2] the test system is Viral SN123 infected CEM cells.
The mark [3] stands for this setting: Human immunodeficiency virus 1, CCRF-CEM, read-out: Whole cell IC50 nM, CEM cells, values in parentheses are 35B in same assay.
[4] abbreviates: Human immunodeficiency virus 1, CCRF-CEM, read-out: Whole cell IC90 nM, CEM cells, values in parentheses are 35B in same assay.
The mark [5] stands for this setting: read-out: Whole cell IC50 nM, CEM cells, values in parentheses are 35B in same assay.
Setting [6] is: read-out: Whole cell IC90 nM, CEM cells, values in parentheses are 35B in same assay.

Converted amounts (≈) assume the structure as drawn. “And” between values parts separate entries of the source, which are not always exact repeats. Equal values may be shown once. Read-outs that look alike come from different tables or passages of the source.

In the case of `CC(C)(C)NC(=O)C1CC2CCCCC2CN1CC(O)C(Cc1ccccc1)NC(=O)c1cccc(O)c1F` (stereo not drawn) [Example 1, [3S-(3R*,4aR*,8aR*,2′S*,3′R*)]-2-[2′-Hydroxy-3′-phenylmethyl-4′-aza-5′-oxo-5′-(2″-fluoro-3″-hydroxyphenyl)pentyl]decahydroisoquinoline-3-N-t-butylcarboxamide], in assay [1], the “SRI CEM IC50” value amounted to 1.38 µg/mL and the IC50 is 1000 ng/mL (≈ 1.85 µM).

Consider `CC(C)(C)NC(=O)C1CC2CCCCC2CN1CC(O)C(Cc1ccccc1)NC(=O)c1cccnc1Cl` (stereo not drawn) [Example 2, [3S-(3R*,4aR*,8aR*,2′S*,3′R*)]-2-[2′-Hydroxy-3′-phenylmethyl-4′-aza-5′-oxo-5′-(2″-chloro-pyrid-3″-yl)pentyl] decahydroisoquinoline-3-N-t-butylcarboxamide], for which, in assay [1], the “SRI CEM IC50” value was 1.58 µg/mL and the IC50 came out at 1380 ng/mL (≈ 2.55 µM).

As a reminder, the IC90 is the point of the concentration-response curve where the effect stands at 90%. As to `CCc1c(O)cccc1C(=O)NC(Cc1ccccc1)C(O)CN1CC2CCCCC2CC1C(=O)NC(C)(C)C` (stereo not drawn) [Example 3, [3S-(3R*,4aR*,8aR*,2′S*,3′R*)]-2-[2′-Hydroxy-3′-phenylmethyl-4′-aza-5′-oxo-5′-(2″-ethyl-3″-hydroxyphenyl)pentyl] decahydroisoguinoline-3-N-t-butylcarboxamide], in assay [1], the “SRI CEM IC50” value was found to be 0.0113 µg/mL and the IC50 came out at 15.2 ng/mL (≈ 0.0276 µM). Also, the IC50 in assay [2] (setting [3]) was determined as 96.1 nM. For the same molecule, the IC90 in assay [2] (setting [4]) turned out to be 286 nM.

Consider `CC(C)(C)NC(=O)C1CC2CCCCC2CN1CC(O)C(Cc1ccccc1)NC(=O)c1ccc[n+]([O-])c1` (stereo not drawn) [Example 5, [3S-(3R*,4aR*,8aR*,2′S*,3′R*)]-2-[2′-Hydroxy-3′-phenylmethyl-4′-aza-5′-oxo-5′-(pyrid-3″yl-N-oxidyl)pentyl] decahydroisoquinoline-3-N-t-butylcarboxamide], for which, in assay [1], the “SRI CEM IC50” value is 4.43 µg/mL and the IC50 stood at 4970 ng/mL (≈ 9.51 µM).

Regarding `CC(C)(C)NC(=O)C1CC2CCCCC2CN1CC(O)C(Cc1ccccc1)NC(=O)c1cccc(O)c1Cl` (stereo not drawn) [Example 11, [3S-(3R*,4aR*,8aR*,2′S*,3′R*)]-2-[2′-Hydroxy-3′-phenylmethyl-4′-aza-5′-oxo-5′-(2″-chloro-3″-hydroxyphenyl)pentyl] decahydroisoquinoline-3-N-t-butylcarboxamide], the “SRI CEM IC50” value in assay [1] was determined as 0.338 µg/mL. Besides, the values for the IC50 in assay [1] and in assay [2] (setting [3]) were 420 ng/mL (≈ 0.755 µM) and 114 nM, respectively.

Turning to `Cc1c(O)cccc1C(=O)NC(Cc1ccccc1)C(O)CN1CC2CCCCC2CC1C(=O)NC(C)(C)C` (stereo not drawn) [Example 12, [3S-(3R*,4aR*,8aR*,2′S*,3′R*)]-2-[2′-Hydroxy-3′-phenylmethyl-4′-aza-5′-oxo-5′-(2″-methyl-3″-hydroxyphenyl)pentyl] decahydroisoquinoline-3-N-t-butylcarboxamide], the “SRI CEM IC50” value in assay [1] came out at 0.0118 µg/mL. In addition, the IC50 in assay [1] was found to be 16.5 ng/mL (≈ 0.0308 µM); in assay [2] (Human immunodeficiency virus 1, CCRF-CEM, read-out: Whole cell IC50 nM, CEM cells, tested as the mesylate salt), 35.7 nM; in assay [2] (setting [3]) it was 15 nM; in assay [2] (setting [5]), 22.3 nM. The IC90 stood at 91.8 nM in assay [2] (Human immunodeficiency virus 1, CCRF-CEM, read-out: Whole cell IC90 nM, CEM cells, tested as the mesylate salt); 47.8 nM in assay [2] (setting [4]); 73.2 nM in assay [2] (setting [6]).

For the molecule `CC(C)(C)NC(=O)C1CC2CCCCC2CN1CC(O)C(Cc1ccccc1)NC(=O)c1ccccc1C(F)(F)F` (stereo not drawn) [Example 15, [3S-(3R*,4aR*,8aR*,2′S*,3′R*)]-2-[2′-Hydroxy-3′-phenylmethyl-4′-aza-5′-oxo-5′-(2″-trifluoromethylphenyl)pentyl] decahydroisoquinoline-3-N-t-butylcarboxamide], in assay [1], the “SRI CEM IC50” value came out at 1.59 µg/mL and the IC50 turned out to be 1430 ng/mL (≈ 2.49 µM).

In the case of `CC(C)(C)NC(=O)C1CC2CCCCC2CN1CC(O)C(Cc1ccccc1)NC(=O)c1c(Cl)ccc(O)c1Cl` (stereo not drawn) [Example 17, [3S-(3R*,4aR*,8aR*,2′S*,3′R*)]-2-[2′-Hydroxy-3′-phenylmethyl-4′-aza-5′-oxo-5′-(2″,6″-dichloro-3″-hydroxyphenyl)pentyl] decahydroisoquinoline-3-N-t-butylcarboxamide], the “SRI CEM IC50” value in assay [1] was 2.9 µg/mL and 2.5 µg/mL.

Consider `Cc1c(N)cccc1C(=O)NC(Cc1ccccc1)C(O)CN1CC2CCCCC2CC1C(=O)NC(C)(C)C` (stereo not drawn) [Example 18, [3S-(3R*,4aR*,8aR*,2′S*,3′R*)]-2-[2′-Hydroxy-3′-phenylmethyl-4′-aza-5′-oxo-5′-(2″-methyl-3″-aminophenyl)pentyl] decahydroisoquinoline-3-N-t-butylcarboxamide], for which, in assay [1], the “SRI CEM IC50” value was 0.231 µg/mL and the IC50 was determined as 256 ng/mL (≈ 0.479 µM). In assay [2] (setting [3]), the IC50 worked out at 739 nM.

Consider `CC(C)c1c(O)cccc1C(=O)NC(Cc1ccccc1)C(O)CN1CC2CCCCC2CC1C(=O)NC(C)(C)C` (stereo not drawn) [Example 20, [3S-(3R*,4aR*,8aR*,2′S*,3′R*)]-2-[2′-Hydroxy-3′-phenylmethyl-4′-aza-5′-oxo-5′-(2″-iospropyl-3″-hydroxyphenyl)pentyl] decahydroisoquinoline-3-N-t-butylcarboxamide], for which the IC50 in assay [1] is 153 ng/mL (≈ 0.271 µM); in assay [2] (setting [3]) it was 186 nM. Also, the 90% effect concentration (IC90) in assay [2] (setting [4]) worked out at 671 nM.

For `CCCCc1c(O)cccc1C(=O)NC(Cc1ccccc1)C(O)CN1CC2CCCCC2CC1C(=O)NC(C)(C)C` (stereo not drawn) [Example 21, [3S-(3R*,4aR*,8aR*,2′S*,3′R*)]-2-[2′-Hydroxy-3′-phenylmethyl-4′-aza-5′-oxo-5′-(2″-butyl-3′″-hydroxyphenyl)pentyl] decahydroisoquinoline-3-N-t-butylcarboxamide], the IC50 in assay [1] is 443 ng/mL (≈ 0.767 µM); in assay [2] (setting [3]), 414 nM. In addition, in assay [2] (setting [4]), the IC90 was 886 nM.

For the molecule `CCCc1c(O)cccc1C(=O)NC(Cc1ccccc1)C(O)CN1CC2CCCCC2CC1C(=O)NC(C)(C)C` (stereo not drawn) [Example 22, [3S-(3R*,4aR*,8aR*,2′S*,3′R*)]-2-[2′-Hydroxy-3′-phenylmethyl-4′-aza-5′-oxo-5′-(2″-propyl-3″-hydroxyphenyl)pentyl] decahydroisoquinoline-3-N-t-butylcarboxamide], the IC50 in assay [1] is 136 ng/mL (≈ 0.241 µM); in assay [2] (setting [3]) it was 400 nM. In addition, the IC90 in assay [2] (setting [4]) amounted to 798 nM.

Regarding `Cc1c(O)cccc1C(=O)NC(Cc1ccccc1)C(O)CN1CC2CCCCC2CC1C(=O)NC(C)(C)C` (stereo not drawn) [Example 23, [3S-(3R*,4aR*,8aR*,2′S*,3′R*)]-2-[2′-Hydroxy-3′-phenylmethyl-4′-aza-5′-oxo-5′-(2″-methyl-3″-hydroxyphenyl)pentyl] decahydroisoquinoline-3-N-t-butylcarboxamide], the “SRI CEM IC50” value in assay [1] came to 0.00862 µg/mL. Besides, in assay [2] (setting [5]), the IC50 came to 2.39 nM. For the same molecule, in assay [2] (setting [6]), the IC90 worked out at 19 nM.

For `Cc1c(O)cccc1C(=O)N[C@@H](CSc1ccc2ccccc2c1)[C@H](O)CN1CCCC[C@H]1C(=O)NC(C)(C)C` [Example 25, [2S-(2R*,2′S*,3′S*)]-1-[2′-Hydroxy-3′-(naphth-2-ylthiomethyl-4′-aza-5′-oxo-5′-(2″-methyl-3″-hydroxyphenyl)pentyl]piperidine-2-N-t-butylcarboxamide], the IC50 in assay [1] worked out at 211 ng/mL (≈ 0.374 µM).

As to “[3S-(3R*,4aR*,8aR*,2′S*,3′S*)]-2-[2′-Hydroxy-3′-phenylmethyl-4′-aza-5′-oxo-5′-[2″-methyl-3″-N-(methylsulfonyl)amino-phenyl)]pentyl] decahydroisoguinoline-3-N-t-butylcarboxamide [Example 36]”, the “SRI CEM IC50” value in assay [1] was 2.43 µg/mL and 1.73 µg/mL.
